Measured values from patent US9855270B2, “Methods and compositions for modulating estrogen receptor mutants” (priority 2014, dated 2018).
Read-outs that look alike come from different tables or passages of the source.

Columns and labels:
[1] = test system: MCF-7 cells (negative control); assay: MCF-7 Stable Cell Line Viability (UbC HA-ER-α series); assay type: cell-based; settings: Receptor None (MCF-7 negative control); for EC50: Homo sapiens, MCF7, read-out: Potency (EC50; nM)
Excerpt: (§1) MCF-7 Mutant ER-α Stable Cell Line Generation: MCF-7 cells stably expressing wild-type or ER-α mutants were generated by subcloning ESR1 wild-type and mutant cDNAs containing an amino terminal hemagglutinin tag into pCDH-EF1-MCS-(PGK-Puro) (referred to as EF1 HA-ER-α) and pCDH-UbC-MCS-EF1-Hygro (referred to as UbC HA-ER-α) (System Biosciences). The resulting plasmids, in addition to an empty vector negative control, were subsequently cotransfected into HEK293T cells with the pPACKH1 packaging plasmid mix (System Biosciences) according to the manufacturer's protocol. Four days post transfection lentiviral particles were purified from the cell medium, tiered and stored at −80° C. MCF-7 cells were transduced with the purified viral particles and stable cell lines were selected by growth in RPMI containing 10% FBS plus 1 μG/mL puromycin or 200 μG/mL hygromycin for pCDH-EF1-MCS-(PGK-Puro) and pCDH-UbC-MCS-EF1-Hygro, respectively.
(§2) MCF-7 Stable Cell Line Viability: MCF-7 cells were enumerated with a hemacytometer adjusted to a concentration of 40,000 cells per mL in Phenol Free RPMI containing 10% CSS with NEAA and Sodium Pyruvate. 16 microliters of the cell suspension was added to each well of a 384 well tissue culture treated white clear bottom polystyrene plate (Corning) using a Matrix 16 channel electronic pipette. The cells were incubated overnight to allow the cells to adhere. The following day, 16 microliters of Phenol Free RPMI containing 10% CSS with NEAA and Sodium Pyruvate was added to the wells of one plate, followed by 16 μL of CellTiter-Glo (Promega, Madison Wis.) luminescent cell viability reagent using a Matrix 16 channel electronic pipette. […] The “average” of the relative luminescence units (RLUs) of the wells are considered to be the baseline value at time=zero. In addition, a 10 point, 1:5 serial dilution in DMSO (Sigma-Aldrich) was performed using Matrix 12 channel electronic pipette, including DMSO only as […]. 4 μL of each dilution was then added to 196 μL of RPMI containing 10% CSS with NEAA and Sodium Pyruvate. 16 μL of medium containing compound was added to the cells at a final concentration ranging from 10 μM to 5 pM. Compound dilution in media and subsequent addition to cells were carried out using Matrix 12 channel electronic pipettes. After 5 day compound exposure, 16 μL of CellTiter-Glo (Promega, Madison Wis.) luminescent cell viability reagent was added to the cells using a Matrix 16 channel electronic pipette. CellTiter-Glo added to 32 μL of medium without cells was used to obtain a background value. […] The relative luminescence units (RLUs) of each well were measured, and relative proliferation (fold) of each sample was determined as follows: (RLU sample−RLU background)/(RLU at T=0)=relative proliferation
(§3) The UbC promoter is reported by the manufacturer (System Biosciences) to express low to moderate RNA levels while the EF1 promoter expresses high levels (System Biosciences).

[2] = test system: MCF-7 cells stably expressing UbC HA-ER-α wild-type; assay: as above; assay type: cell-based; settings: UbC HA-ER-α Wild-type; for EC50: Homo sapiens, MCF7, read-out: Potency (EC50; nM); for Percent inhibition compared to vehicle: 5-Day Incubation; for Efficacy (Emax): Day 5 relative to Day 0
Excerpt: as §1, §2, §3

[3] = test system: MCF-7 cells stably expressing EF1 HA-ER-α wild-type; assay: MCF-7 Stable Cell Line Viability (EF1 HA-ER-α series); assay type: cell-based; design: Percent inhibition compared to vehicle: concentration or dose not given beside the values; settings: EF1 HA-ER-α Wild-type; for Percent inhibition compared to vehicle: 5-Day Incubation; for Efficacy (Emax): Day 5 relative to Day 0; for EC50: Homo sapiens, MCF7, read-out: Potency (EC50; nM)
Excerpt: as §1, §2, §3

[4] = test system: MCF-7 cells transduced with an empty EF1 lentiviral vector (negative control); assay: as above; assay type: cell-based; design: Percent inhibition compared to vehicle: concentration or dose not given beside the values; settings: for EC50: Homo sapiens, MCF7, Receptor None (empty EF1 lentiviral vector), read-out: Potency (EC50; nM); for Percent inhibition compared to vehicle / Efficacy (Emax): Receptor None (empty EF1 lentiviral vector); for Percent inhibition compared to vehicle: 5-Day Incubation; for Efficacy (Emax): Day 5 relative to Day 0
Excerpt: as §1, §2, §3

[5] = molecular target: T1, ER-α L536P (Homo sapiens, UniProt P03372, L536P); settings: Agonist Mode; for Efficacy (Emax): −E2, relative to vehicle treated wild-type ER-α
T1 sequence (P03372 1-595 L536P): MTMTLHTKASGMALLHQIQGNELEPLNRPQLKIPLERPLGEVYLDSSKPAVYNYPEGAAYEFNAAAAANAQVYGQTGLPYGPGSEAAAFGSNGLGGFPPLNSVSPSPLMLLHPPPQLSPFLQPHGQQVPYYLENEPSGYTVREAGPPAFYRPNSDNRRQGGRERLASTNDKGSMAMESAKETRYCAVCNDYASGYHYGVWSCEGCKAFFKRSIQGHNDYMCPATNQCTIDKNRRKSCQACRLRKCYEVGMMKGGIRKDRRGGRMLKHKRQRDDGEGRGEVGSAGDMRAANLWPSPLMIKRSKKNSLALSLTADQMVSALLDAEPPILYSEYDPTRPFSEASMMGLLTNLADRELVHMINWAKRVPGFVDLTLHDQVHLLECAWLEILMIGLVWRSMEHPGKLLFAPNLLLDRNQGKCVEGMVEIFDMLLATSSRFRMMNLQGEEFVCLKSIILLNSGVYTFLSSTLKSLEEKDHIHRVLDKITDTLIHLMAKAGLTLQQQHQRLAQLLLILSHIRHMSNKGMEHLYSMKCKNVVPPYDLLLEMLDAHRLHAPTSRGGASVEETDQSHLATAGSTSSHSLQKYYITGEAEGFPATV
Description: Cells were transiently transfected using
Triplicate transfections were performed using 180 ng 3×ERE-TK-Luc (reporter vector), 30 ng pRL-CMV (normalization vector), and 270 ng pCDNA ER-α (or ER-α mutation).
Following 24 hour incubation the medium was removed and the cells were lysed in 40 μL of lysis buffer (25 mM Tris Phosphate, 2 mM CDTA, 10% Glycerol, 0.5% Triton X-100, 2 mM DTT).

[6] = Agonist Mode, −E2, 5-Day Incubation
[7] = Agonist Mode, −E2, Day 5 relative to Day 0
[8] = Antagonist Mode, +E2, 5-Day Incubation
[9] = Antagonist Mode, +E2, Day 5 relative to Day 0
[10] = Antagonist Mode, −E2 (Table 27)

Compound | EC50 ([1]; Agonist Mode, −E2) | EC50 ([1]; Antagonist Mode, +E2) | Percent inhibition compared to vehicle [1, 6] | Efficacy (Emax) [1, 7] | Percent inhibition compared to vehicle [1, 8] | Efficacy (Emax) [1, 9] | EC50 ([2]; Agonist Mode, −E2) | EC50 ([2]; Antagonist Mode, +E2) | Percent inhibition compared to vehicle ([2]; Agonist Mode, −E2) | Efficacy (Emax) ([2]; Agonist Mode, −E2) | Percent inhibition compared to vehicle ([2]; Antagonist Mode, +E2) | Efficacy (Emax) ([2]; Antagonist Mode, +E2) | Percent inhibition compared to vehicle ([3]; Agonist Mode, −E2) | Efficacy (Emax) ([3]; Agonist Mode, −E2) | Percent inhibition compared to vehicle ([3]; Antagonist Mode, +E2) | Efficacy (Emax) ([3]; Antagonist Mode, +E2) | EC50 ([3]; Antagonist Mode, +E2) | EC50 [3, 10] | EC50 ([4]; Antagonist Mode, +E2) | EC50 [4, 10] | further results
CC1=C(c2cccc(O)c2)[C@H](c2ccc(OCCN3CC(CF)C3)cc2)Oc2ccc(O)cc21 [Compound 4-23, (S)-2-(4-(2-(3-(fluoromethyl)azetidin-1-yl)ethoxy)phenyl)-3-(3-hydroxyphenyl)-4-methyl-2H-chromen-6-ol] | 0.227 ± 0.21 nM | 0.378 ± 0.216 nM | 31% | 1.20 ± 0.27 | 66% | 1.08 ± 0.04 | 4.04 ± 8.01 nM | 0.599 ± 0.3 nM | 39% | 1.13 ± 0.13 | 76% | 1.20 ± 0.10 | 62% | 2.17 ± 0.03 | 68% | 2.17 ± 0.29 | 8.65 ± 10.5 nM | 2.13 ± 2.06 nM | 2.81 ± 3.28 nM | 0.286 ± 0.294 nM | Percent inhibition compared to vehicle ([4]; Agonist Mode, −E2): 52%; Efficacy (Emax) ([4]; Agonist Mode, −E2): 1.06 ± 0.24; Percent inhibition compared to vehicle ([4]; Antagonist Mode, +E2): 76%; Efficacy (Emax) ([4]; Antagonist Mode, +E2): 0.96 ± 0.12; Percent inhibition compared to vehicle ([5]; −E2): 68%; Efficacy (Emax) [5]: 1.01
C[C@]12CC[C@@H]3c4ccc(O)cc4C[C@@H](CCCCCCCCC[S+]([O-])CCCC(F)(F)C(F)(F)F)[C@H]3[C@@H]1CC[C@@H]2O (some centres unmarked) [Fulvestrant] | 0.05 ± 0.017 nM | 0.327 ± 0.324 nM | 28% | 1.27 ± 0.24 | 64% | 1.15 ± 0.01 | 0.08 ± 0.042 nM | 0.516 ± 0.479 nM | 37% | 1.17 ± 0.13 | 75% | 1.23 ± 0.09 | 63% | 2.12 ± 0.23 | 70% | 2.04 ± 0.10 | 3.97 ± 0.955 nM | 0.895 ± 0.173 nM | 1.44 ± 0.156 nM | 0.178 ± 0.129 nM | EC50 ([3]; Agonist Mode, −E2): 0.895 ± 0.173 nM; EC50 ([4]; Agonist Mode, −E2): 0.178 ± 0.129 nM; Percent inhibition compared to vehicle ([4]; Agonist Mode, −E2): 51%; Efficacy (Emax) ([4]; Agonist Mode, −E2): 1.09 ± 0.16; Percent inhibition compared to vehicle ([4]; Antagonist Mode, +E2): 74%; Efficacy (Emax) ([4]; Antagonist Mode, +E2): 1.04 ± 0.15; Efficacy (Emax) [5]: 0.42
